Data taken from article PMC9975351 (Frontiers in Pharmacology, 2023).
Where two headings read alike, the source gives them in different places.

Columns and labels:
CYP2A6 = target: T1, CYP2A6 (Homo sapiens, UniProt P11509); experiment: CYP cocktail inhibition assay in pooled HLMs, CYP2A6; details: substrate cocktail
T1 sequence (P11509 1-494): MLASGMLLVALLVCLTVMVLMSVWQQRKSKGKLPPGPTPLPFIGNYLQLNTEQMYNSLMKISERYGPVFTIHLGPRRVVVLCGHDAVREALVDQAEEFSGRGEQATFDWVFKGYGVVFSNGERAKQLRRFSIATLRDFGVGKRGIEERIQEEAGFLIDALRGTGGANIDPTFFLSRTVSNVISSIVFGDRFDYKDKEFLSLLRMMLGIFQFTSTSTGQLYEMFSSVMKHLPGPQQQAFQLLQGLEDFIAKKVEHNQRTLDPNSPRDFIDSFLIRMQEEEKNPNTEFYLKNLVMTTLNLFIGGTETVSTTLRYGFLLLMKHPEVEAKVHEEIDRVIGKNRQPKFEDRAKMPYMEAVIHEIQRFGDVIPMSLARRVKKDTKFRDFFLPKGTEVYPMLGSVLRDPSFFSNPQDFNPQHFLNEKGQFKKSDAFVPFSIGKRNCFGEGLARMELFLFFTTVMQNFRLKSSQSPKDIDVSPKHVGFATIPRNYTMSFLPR
Procedure: (§1) The drug–drug interaction potential was evaluated using a CYP cocktail assay that involved microsomal incubation and NADPH, as described elsewhere ([Lee et al., 2012]). […] The first reactions were initiated by NADPH addition, and each mixture was incubated in a shaking water bath at 37°C for 30 min. The final incubation was performed for 10 min with a total volume of 200 µL by adding substrates (tolbutamide (set B) as a CYP2C9 selective substrate, midazolam (set A) and testosterone (set B) as CYP3A4 selective substrates) and NADPH. The reaction was stopped and quenched by adding 200 µL of ice-cold acetonitrile containing 50 nM CBZ as internal standard, then centrifuged at 3,000 x g for 20 min. The supernatants were injected in LC-QTOF system. IC50 shift values were calculated as the ratio of the IC50 value obtained after pre-incubation without NADPH divided by the IC50 value obtained after 30 min incubation with NADPH.
(§2) The LC-QTOF system consisted of an Exion AD LC device (AB Sciex, Framingham, MA, United States) and a TripleTOF 6,600 + system (AB Sciex) equipped with an IonDrive Turbo V source operated in positive TOF information-dependent acquisition (IDA) MS2 scan mode. The TOF scan dwell time was 50 ms, and the 20 × IDA MS2 scan time was acquired with a 30-ms dwell time. […]

CYP2D6 = CYP2D6 (Homo sapiens, UniProt P10635); details: pooled HLMs, substrate cocktail
Procedure: as §1, §2

[1] = Metabolic stability and metabolite formation in pooled human liver microsomes with NADPH and/or UDPGA; format: in vitro ADME; details: for Concentration remaining, % of the initial concentration: 1 µM, HLMs; for Hepatic clearance CLh / CLint scaled at 1 µM: in vitro-in vivo extrapolation, well-stirred model; for half-life at 1 µM / microsomal CLint at 1 µM / CLint scaled at 1 µM: human, microsomes; for half-life at 1 µM: pH 7.4, 1 µM compound, read-out: Half-life; for microsomal CLint at 1 µM: read-out: Intrinsic clearance (in vitro) Clint; for CLint scaled at 1 µM: read-out: Intrinsic clearance (in vivo) CLint
Procedure: Microsomal incubation was conducted in triplicate using 0.1 M potassium phosphate buffer (PPB, pH 7.4) in eight-well tube strips in an 8 × 12 rack (1.2 mL; VWR, Emeryville, CA, United States). […] The mixture was pre-incubated at 37°C with shaking at approximately 100 rpm for 5 min. UGT glucuronidation was performed with HLMs (1 mg/mL) and alamethicin (25 μg/mg microsomal protein) in a 100-mM PPB (pH 7.4) solution on ice for 15 min. […] CYP, UGT, and combined reactions were initiated by addition of the NADPH regenerating system, UDPGA (1 mM), and both, respectively. […] The incubation mixtures were then centrifuged at 2,000 × g and 4°C for 20 min, and the supernatants were analyzed by LC-QTOF HRMS.
The incubation mixtures were pre-incubated at 37°C in a shaking water bath at approximately 100 rpm for 5 min. Reactions were initiated by the addition of an NADPH-regenerating system. The reaction was terminated, centrifuged then analyzed using the same method described above.
In the microsomal stability analysis, degradation half-life (t½) values were calculated using the following equation: t½=0.693/k where k is the first-order degradation rate constant, estimated by one-phase exponential-decay non-linear regression of the degradation time-course data using Graph Pad Prism 8.0 (Graph Pad Software Inc., San Diego, CA, United States). In vitro metabolic stability parameters, microsomal intrinsic clearance (CLint,mic), apparent intrinsic clearance (CL′int), and hepatic clearance (CLh), were calculated according to the well-stirred model approach ([Pang and Rowland, 1977]; [Baranczewski et al., 2006]). The apparent kinetic parameters of GRL0617 metabolism were determined by fitting a one-enzyme Michaelis-Menten equation. […] All data are presented as mean ± SD. Data were compared between groups using the unpaired Student’s t-test. The significance level was set at p < 0.05, unless indicated otherwise.

[2] = test system: other CYP isoforms (CYP1A2, 2A6, 2B6, 2C8, 2C9, 2E1); experiment: Reaction phenotyping with other recombinant CYP isoforms; format: in vitro ADME, human; details: 1 µM, 50 pmol/mL of each other recombinant CYP isoform, NADPH, 60 min
Procedure: Reactions were conducted in triplicate using 0.1 M PPB (pH 7.4) in eight-well tube strips in an 8 × 12 rack. […] The mixture was pre-incubated at 37°C with shaking at approximately 100 rpm for 5 min. Reactions were initiated by the addition of the NADPH-regenerating system and quenched with 200 µL ice-cold acetonitrile containing 50 nM CBZ. The samples were centrifuged at 1,000 × g and 4°C for 20 min, and the supernatants were subjected to LC-QTOF HRMS. […] The reaction was incubated, initiated, terminated, centrifuged then analyzed using the same method described above.
Reaction phenotyping is the identification of isoforms involved in drug metabolism and is important for the decipherment of drug biotransformation pathways and understanding of possible drug-drug interactions. M6, M7, and M8 were also detected in recombinant CYP incubations.

Chain of CYP2D6 (P10635 whole entry): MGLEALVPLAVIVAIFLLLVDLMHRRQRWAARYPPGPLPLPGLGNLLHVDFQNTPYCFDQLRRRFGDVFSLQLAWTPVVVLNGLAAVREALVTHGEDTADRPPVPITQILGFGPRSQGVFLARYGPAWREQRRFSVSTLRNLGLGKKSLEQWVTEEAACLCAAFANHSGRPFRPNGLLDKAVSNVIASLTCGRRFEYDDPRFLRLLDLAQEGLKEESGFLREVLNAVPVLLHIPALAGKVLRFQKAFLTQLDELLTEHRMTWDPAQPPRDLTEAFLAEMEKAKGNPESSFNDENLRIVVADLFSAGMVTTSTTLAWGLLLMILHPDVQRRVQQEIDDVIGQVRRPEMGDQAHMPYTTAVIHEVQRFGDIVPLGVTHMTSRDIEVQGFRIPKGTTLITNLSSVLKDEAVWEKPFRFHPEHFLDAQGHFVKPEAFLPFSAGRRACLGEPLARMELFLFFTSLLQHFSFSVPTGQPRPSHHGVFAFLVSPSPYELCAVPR

Compound: Cc1ccc(N)cc1C(=O)N[C@H](C)c1cccc2ccccc12 [GRL0617, 5-amino-2-methyl-N-[(1R)-1-(1-naphthalenyl)ethyl]benzamide]
- Concentrations at which CYP2A6 was inhibited (CYP2A6): ≥ 50 µM
- Concentrations at which CYP2D6 was inhibited (CYP2D6): ≥ 50 µM
- Half-life ([1]; 1 µM compound, 1 mg/mL pooled HLMs with NADPH (phase I)): 26.4 min
- Concentration remaining, % of the initial concentration ([1]; 60 min incubation with NADPH): 44.5% ± 5.3%
- Concentration remaining, % of the initial concentration ([1]; 60 min incubation with NADPH + UDPGA): 47.2% ± 7.5%
- Concentration remaining, % of the initial concentration ([1]; 60 min incubation with UDPGA): 93.4% ± 6.1%
- Direct UGT glucuronidation ([1]; HLM with UDPGA only): No direct UGT glucuronidation was detected
- Hepatic clearance CLh ([1]; NADPH + UDPGA): 11.1 mL/min/kg
- Hepatic clearance CLh ([1]; NADPH): 11.7 mL/min/kg
- half-life at 1 µM ([1]; 1 mg/mL pooled HLMs with NADPH (phase I)): < 30 min
- half-life at 1 µM ([1]; 1 mg/mL pooled HLMs with NADPH + UDPGA (phase I + II)): 29.5 min
- microsomal CLint at 1 µM ([1]; pH 7.4, HLMs with NADPH + UDPGA): 23.5 µL/min/mg
- microsomal CLint at 1 µM ([1]; pH 7.4, HLMs with NADPH): 26.3 µL/min/mg
- CLint scaled at 1 µM ([1]; pH 7.4, NADPH + UDPGA): 24.1 mL/min/kg
- CLint scaled at 1 µM ([1]; pH 7.4, NADPH): 27 mL/min/kg
- Reduction of GRL0617 level [2]: < 10%
